According to patent US20250230171A1 (MOMA Therapeutics, Inc., priority 2023, published 2025):
Where two headings read alike, the source gives them in different places.

Target: biotinylated Avi-POLθ[2-894] (Homo sapiens (Human), UniProt O75417)
Experiment: POLθ ATPase assay (ADP-Glo)
Settings: n=2, read-out: Biochemical ATPase ADPGlo IC50
Method: In some embodiments, the ATPase assay a compound of the present disclosure is combined with biotinylated Avi-POLθ[2-894], a 50 nucleotide poly-thymine repeat single-stranded DNA, and ATP in buffer. In some embodiments, the mixture is incubated and ADP-Glo Reagent added, followed by a subsequent incubation. In some embodiments, a Kinase Detection Reagent may be added, followed by a third incubation. In some embodiments, the activity is measured via luminescence signal (e.g., measured with the EnVision multimode plate reader). POLθ-mediated ATP hydrolysis was measured using the ADP-Glo Kinase Assay (Promega Corporation, Madison, WI). Reactions were performed in white 384-well small-volume microplates (Greiner Bio-One, Frickenhausen, Germany) using a total volume of 15 μL. The ATPase reaction consisted of 1 nM biotinylated Avi-POLθ[2-894], 5 nM of a 50 nucleotide poly-thymine repeat single-stranded DNA (PolyT(50) ssDNA), and 100 μM ATP in 5 μL of assay buffer (50 mM Tris, pH 7.5, 80 mM KCl, 10 MgCl2, 1 mM DTT, 5% glycerol, 0.01% BSA, 0.01% Tween-20). Inhibition of POLΘATPase activity was determined by preparing 11-point serial dilutions of the test compounds in 100% DMSO, then transferring 30 nL of the compounds into the ATPase reaction using an Echo acoustic liquid handler (Beckman Coulter, Brea, CA). DMSO-treated wells containing either all of the reaction components (1 nM biotinylated Avi-POLθ[2-894], 5 nM PolyT(50) ssDNA, 100 μM ATP) or with assay buffer substituted for the biotinylated Avi-POLθ[2-894](0 nM biotinylated Avi-POLθ[2-894], 5 nM PolyT(50) ssDNA, 100 μM ATP) were used to define the maximum and minimum response in the assay. Following a one-hour incubation at ambient temperature, 5 μL of ADP-Glo Reagent was added to the ATPase reaction, and this mixture was allowed to incubate at ambient temperature for an additional hour. Lastly, 5 μL of Kinase Detection Reagent was added, followed by a third one-hour incubation at ambient temperature. […] Luminescence signal was measured using the EnVision multimode plate reader (Perkin Elmer. Waltham. MA). […] Non-linear regression analysis using the four-parameter logistic equation was conducted on the percent activity values of the compound dose-responses, yielding the AC50 value for each compound. Genedata Screener (Genedata. Basel, Switzerland) was used for the data analysis.

biotinylated Avi-POLθ[2-894], sequence (O75417 2-894): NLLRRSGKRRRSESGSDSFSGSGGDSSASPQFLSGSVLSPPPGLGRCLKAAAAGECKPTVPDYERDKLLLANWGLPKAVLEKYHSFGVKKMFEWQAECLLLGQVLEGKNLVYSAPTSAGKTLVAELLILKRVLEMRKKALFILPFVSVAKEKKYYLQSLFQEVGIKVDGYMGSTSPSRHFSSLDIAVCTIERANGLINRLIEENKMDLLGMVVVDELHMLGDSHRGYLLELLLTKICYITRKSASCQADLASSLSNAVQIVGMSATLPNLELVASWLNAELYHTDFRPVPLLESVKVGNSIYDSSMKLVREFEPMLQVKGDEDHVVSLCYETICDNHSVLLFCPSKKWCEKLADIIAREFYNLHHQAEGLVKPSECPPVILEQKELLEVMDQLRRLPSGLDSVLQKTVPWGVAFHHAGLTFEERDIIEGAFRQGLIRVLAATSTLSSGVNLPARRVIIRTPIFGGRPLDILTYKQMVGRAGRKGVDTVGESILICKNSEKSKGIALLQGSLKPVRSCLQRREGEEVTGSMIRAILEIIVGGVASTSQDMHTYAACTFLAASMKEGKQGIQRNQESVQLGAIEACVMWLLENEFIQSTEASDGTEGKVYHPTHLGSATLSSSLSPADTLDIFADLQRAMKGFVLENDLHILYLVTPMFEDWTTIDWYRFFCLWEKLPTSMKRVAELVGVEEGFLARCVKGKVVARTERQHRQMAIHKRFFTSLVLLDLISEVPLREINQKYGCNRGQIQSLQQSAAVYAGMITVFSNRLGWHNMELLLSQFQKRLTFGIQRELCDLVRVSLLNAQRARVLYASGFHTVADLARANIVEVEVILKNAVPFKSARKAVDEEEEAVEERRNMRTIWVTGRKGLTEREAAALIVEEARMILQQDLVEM

Compound	IC50 [nM]	IC50 (POLθ ATPase, ADP-Glo) [nM]
COc1ccccc1-c1cc(C)ncc1C(=O)Nc1nc2c(s1)CN(C(=O)C1C3COCC31)C2 (centres unmarked)	150 to 900	
COc1cnc(Cl)cc1-c1cc(C)ncc1C(=O)Nc1nc2c(s1)CN(C(=O)c1ccn(CC(F)F)n1)C2 [Example 51, 2′-chloro-N-(5-(1-(2,2-difluoroethyl)-1H-pyrazole-3-carbonyl)-5,6-dihydro-4H-pyrrolo[3,4-d]thiazol-2-yl)-5′-methoxy-6-methyl-[4,4′-bipyridine]-3-carboxamide]	1 to 15	
COc1cnnc(C(=O)N2Cc3nc(NC(=O)c4cnc(C)cc4-c4cc(Cl)ncc4OC)sc3C2)c1		15 to 50
COc1cnc(Cl)cc1-c1cc(C)ncc1C(=O)Nc1nc2c(s1)CN(C(=O)[C@H]1C[C@@](F)(CO)C1)C2 [Example 106, 2′-chloro-N-(5-((1r,3r)-3-fluoro-3-(hydroxymethyl)cyclobutane-1-carbonyl)-5,6-dihydro-4H-pyrrolo[3,4-d]thiazol-2-yl)-5′-methoxy-6-methyl-[4,4′-bipyridine]-3-carboxamide]	1 to 15	
COc1cnc(Cl)cc1-c1cc(C)ncc1C(=O)Nc1nc2c(s1)CN(C(=O)C1CC(OC)(C(F)(F)F)C1)C2 (racemic) [Example 103, (Racemic)-2′-chloro-5′-methoxy-N-(5-(3-methoxy-3-(trifluoromethyl)cyclobutane-1-carbonyl)-5,6-dihydro-4H-pyrrolo[3,4-d]thiazol-2-yl)-6-methyl-[4,4′-bipyridine]-3-carboxamide]	15 to 50	
COc1ccccc1-c1cc(C)ncc1C(=O)Nc1nc2c(s1)CN(C(=O)c1ccn(C)n1)C2	50 to 150	
COc1ccc(C#N)cc1-c1cc(C)ncc1C(=O)Nc1nc2c(s1)CN(S(=O)(=O)N1CCCC1)CC2	50 to 150	
COc1ccccc1-c1cc(C)ncc1C(=O)Nc1nc2c(s1)CN(C(=O)C1(c3ccccn3)CC1)C2 (racemic)	50 to 150	
COc1cnc(Cl)cc1-c1cc(C)ncc1C(=O)Nc1nc2c(s1)CC(C(=O)NC1CC1)CC2 (single isomer, unassigned) [Example 154]	150 to 900	
COc1cnc(Cl)cc1-c1cc(C)ncc1C(=O)Nc1nc2c(s1)CC(N1CCC(O)CC1)CC2 (racemic) [Example 109, (Racemic)-2′-chloro-N-(6-(4-hydroxypiperidin-1-yl)-4,5,6,7-tetrahydrobenzo[d]thiazol-2-yl)-5′-methoxy-6-methyl-[4,4′-bipyridine]-3-carboxamide]	150 to 900	
COc1ccccc1-c1cc(C)ncc1C(=O)Nc1nc2c(s1)CN(S(=O)(=O)NCC(C)C)C2	50 to 150	
COc1ccccc1-c1cc(C)ncc1C(=O)Nc1nc2c(s1)CCN(C(=O)OC(C)(C)C)C2	≥ 900	
COc1ccccc1-c1cc(C)ncc1C(=O)Nc1nc2c(s1)CN(C(=O)C1(C#N)CCC1)C2	150 to 900	
COc1cnc(Cl)cc1-c1cc(C)ncc1C(=O)Nc1nc2c(s1)CN(C(=O)c1cn(C)nc1C(F)F)C2 [Example 173]	1 to 15	
COc1cnc(Cl)cc1-c1cc(C)ncc1C(=O)Nc1nc2c(s1)CN(C(=O)C1CCCC(OC(F)F)C1)C2 (centres unmarked)		150 to 900
COc1ccccc1-c1cc(C)ncc1C(=O)Nc1nc2c(s1)CC(Nc1ccccc1)CC2 (centres unmarked) [listing 1 of 2 here]	50 to 150	
COc1ccc(C#N)cc1-c1cc(C)ncc1C(=O)Nc1nc2c(s1)CN(S(=O)(=O)NC1CCCC1)C2 [Example 230]	1 to 15	
COc1ccccc1-c1cc(C)ncc1C(=O)Nc1nc2c(s1)CN(C(=O)c1cn(C)nc1OC)C2	15 to 50	
COc1ccccc1-c1cc(C)ncc1C(=O)Nc1nc2c(s1)CC(c1ccc(Cl)cc1)CC2 (centres unmarked)	50 to 150	
COc1cnc(Cl)cc1-c1cc(C)ncc1C(=O)Nc1nc2c(s1)CN(C(=O)c1ncn(C(C)C)n1)C2 [Example 77, 2′-chloro-N-(5-(1-isopropyl-1H-1,2,4-triazole-3-carbonyl)-5,6-dihydro-4H-pyrrolo[3,4-d]thiazol-2-yl)-5′-methoxy-6-methyl-[4,4′-bipyridine]-3-carboxamide]	15 to 50	
COc1ccccc1-c1cc(C)ncc1C(=O)Nc1nc2c(s1)CN(C(=O)CN1CCOC1=O)C2	≥ 900	
COc1cnc(Cl)cc1-c1cc(C)ncc1C(=O)Nc1nc2c(s1)CN(C(=O)C1CCOCC1)C2 [Example 184]	1 to 15	
COc1cnc(Cl)cc1-c1cc(C)ncc1C(=O)Nc1nc2c(s1)CN(C(=O)[C@H]1C[C@@H](O)C1)C2 [Example 185]	1 to 15	
COc1ccccc1-c1cc(C)ncc1C(=O)Nc1nc2c(s1)CN(C(=O)C1COCCO1)C2 (centres unmarked)	150 to 900	

Compound	IC50 [nM]	IC50 (POLθ ATPase, ADP-Glo) [nM]
COc1ccccc1-c1cc(C)ncc1C(=O)Nc1nc2c(s1)COCC2	≥ 900	
COc1cnc(Cl)cc1-c1cc(C)ncc1C(=O)Nc1nc2c(s1)CN(C(=O)c1cnn(C)c1C)C2 [Example 87, 2′-chloro-N-(5-(1,5-dimethyl-1H-pyrazole-4-carbonyl)-5,6-dihydro-4H-pyrrolo[3,4-d]thiazol-2-yl)-5′-methoxy-6-methyl-[4,4′-bipyridine]-3-carboxamide]	15 to 50	
COc1cnc(Cl)cc1-c1cc(C)ncc1C(=O)Nc1nc2c(s1)C(C)N(C(=O)c1ccc(C(F)(F)F)nc1OC)C2 (single isomer, unassigned) [Example 1047, (S or R)-2′-chloro-5′-methoxy-N-(5-(2-methoxy-6-(trifluoromethyl)nicotinoyl)-6-methyl-5,6-dihydro-4H-pyrrolo[3,4-d]thiazol-2-yl)-6-methyl-[4,4′-bipyridine]-3-carboxamide]		150 to 900
N-(5-(1H-pyrazole-5-carbonyl)-5,6- dihydro-4H-pyrrolo[3,4-d]thiazol-2-yl)- 2′-chloro-5′-methoxy-6-methyl-[4,4′- bipyridine]-3-carboxamide [Example 86]	1 to 15	
COC(=O)N1Cc2nc(NC(=O)c3cnc(C)cc3-c3ccccc3OC)sc2C1	150 to 900	
COc1ccc(C#N)cc1-c1cc(C)ncc1C(=O)Nc1nc2c(s1)CN(S(=O)(=O)c1ccc(C)cn1)C2	1 to 15	
COc1ccccc1-c1cc(C)ncc1C(=O)Nc1nc2c(s1)CN(C(=O)c1ccn(C)c(=O)c1)C2	150 to 900	
COc1ccccc1-c1cc(C)ncc1C(=O)Nc1nc2c(s1)CN(C(=O)c1ncn(C)n1)C2	50 to 150	
COc1cnc(Cl)cc1-c1cc(C)ncc1C(=O)Nc1nc2c(s1)CN(C(=O)c1ncn(C)n1)C2 [Example 50, 2′-chloro-5′-methoxy-6-methyl-N-(5-(1-methyl-1H-1,2,4-triazole-3-carbonyl)-5,6-dihydro-4H-pyrrolo[3,4-d]thiazol-2-yl)-[4,4′-bipyridine]-3-carboxamide]	1 to 15	
COc1cnc(Cl)cc1-c1cc(C)ncc1C(=O)Nc1nc2c(s1)CN(C(=O)[C@H]1CCCOC1)C2 [Example 183]	1 to 15	
COc1cncc(C(=O)N2Cc3nc(NC(=O)c4cnc(C)cc4-c4cc(Cl)ncc4OC)sc3C2)n1 [Example 528]		1 to 15
COc1ccc(C#N)cc1-c1cc(C)ncc1C(=O)Nc1nc2c(s1)CN(C(=O)C1CCCC1)CC2 (single isomer, unassigned)	150 to 900	
COc1ccccc1-c1cc(C)ncc1C(=O)Nc1nc2c(s1)CN(C(=O)C13CC(C#N)(C1)C3)C2	150 to 900	
COc1cnc(Cl)cc1-c1cc(C)ncc1C(=O)Nc1nc2c(s1)C[C@@H](C(=O)N1CC(O)C1)CC2	150 to 900	
COc1cnc(Cl)cc1-c1cc(C)ncc1C(=O)Nc1nc2c(s1)CN(C(=O)[C@@H]1C[C@@H]1CO)C2 [Example 107, 2′-chloro-N-(5-((1R,2S)-2-(hydroxymethyl)cyclopropane-1-carbonyl)-5,6-dihydro-4H-pyrrolo[3,4-d]thiazol-2-yl)-5′-methoxy-6-methyl-[4,4′-bipyridine]-3-carboxamide]	50 to 150	
COc1cnc(Cl)cc1-c1cc(C)ncc1C(=O)Nc1nc2c(s1)CN(C(=O)c1ncc(C)nc1C)C2		1 to 15
COc1ccccc1-c1cc(C)ncc1C(=O)Nc1nc2c(s1)CN(S(=O)(=O)N1CCOCC1)C2	15 to 50	
COc1cnc(Cl)cc1-c1cc(C)ncc1C(=O)Nc1nc2c(s1)CN(C(=O)c1ccnn1C(F)F)C2 (racemic) [Example 137]	1 to 15	
COc1ccccc1-c1cc(C)ncc1C(=O)Nc1nc2c(s1)CC(Nc1ccccc1)CC2 (centres unmarked) [listing 2 of 2 here]	≥ 900	
COc1cnc(Cl)cc1-c1cc(C)ncc1C(=O)Nc1nc2c(s1)CN(C(=O)N1CC(O)C1)C2 [Example 149]	50 to 150	
COc1cnc(Cl)cc1-c1cc(C)ncc1C(=O)Nc1nc2c(s1)CN(S(=O)(=O)C1CC1)C2 [Example 234]	1 to 15	
COc1ccccc1-c1cc(C)ncc1C(=O)Nc1nc2c(s1)CN(C(=O)C1(C#N)CC1)C2	≥ 900	
CNC(=O)N1Cc2nc(NC(=O)c3cnc(C)cc3-c3ccccc3OC)sc2C1	≥ 900	
